One compound from patent US20160152566A1, “TRICYCLIC PYRROLE COMPOUNDS, THEIR PREPARATION AND USE IN MEDICAMENTS” (INSTITUTO BIOMAR, S.A., priority 2013, published 2016) can be followed below.

The subject of data set [1] is BAE cells. The data set can be described thus: MTT dye reduction cell growth assay, BAE cells. The data set is classed as cell-based, Bovine. The following applies: Bos taurus, 72 h, subconfluent BAE cells stimulated with 10% FBS, 3 days, read-out: IC50, growth of cultured BAE cells. As for the experimental part:
The 3-(4,5-dimethylthiazol-2-yl)-2,5 diphenyltetrazolium bromide (MIT; Sigma Chemical Co., St. Louis, Mo.) dye reduction assay in 96-well microplates was used. The assay is dependent on the reduction of MTT by mitochondrial dehydrogenases of viable cell to a blue formazan product, which can be measured spectrophotometrically.
3×10^3 BAE cells in a total volume of 100 μl of complete medium were incubated in each well with serial dilutions of the compound AD0157 obtained as explained above. After 3 days of incubation in the dark (37° C., 5% CO2 in a humid atmosphere), 10 μl of MTT (5 mg/ml in PBS) was added to each well and the plate was incubated for further 4 h (37° C.). The resulting formazan was dissolved in 150 μl of 0.04 N HCl-2 propanol and read at 550 nm. All determinations were carried out in triplicate, independent experiments. IC50 values were calculated as those concentrations of AD0157 yielding 50% cell survival, taking the values obtained for control as 100%.
In general terms: Tetrazolium dyes change colour on reduction, which living cells bring about.

Data set [2] relates to endothelial and tumor cells. The data set can be described thus: Hoechst staining of nuclear morphology. The data set is classed as cell-based. The following applies: 14 h treatment, endothelial and most types of tumor cells. As to the method: For Hoechst staining experiments, cells were seeded on 8-well chamber slides and grown to sub-confluence. After treatments for 14 h with the indicated concentrations of the compound in complete medium, cells were washed (PBS) and fixed (formalin solution, Sigma). Chamber slides were stained with Hoechst, mounted (DAKO Cytomation Fluorescent Mounting Medium, DAKO), and observed under a fluorescence microscope (Leica, TCS-NT).

Data set [3] deals with BAE cells. The data set can be described thus: Capillary tube formation on Matrigel. The following applies: BAECs, 7 h. Format: cell-based, Bovine. As for the experimental part:
(§1) Matrigel (50 μL of about 10.5 mg/mL) at 4° C. was used to coat each well of a 96-well plate and allowed to polymerise at 37° C. for a minimum of 30 min. 5×10^4 BAE cells were added with 200 μL DMEM. Finally, different amounts of the Compound AD0157 were added and incubated at 37° C. in a humidified chamber with 5% CO2. After incubation for 7 h, cultures were observed (40× and 100× magnifications) and photographed with a NIKON inverted microscope DIAPHOT-TMD (Nikon, Tokyo, Japan). Each concentration was tested in duplicate, and two different observers evaluated the inhibition of tube formation. To check the viability of endothelial cells after the treatment with the compounds in this assay, BAE cells were incubated in 96-well plate in the same conditions employed for the tube formation assay. After 7 h, cell viability in comparison to control untreated cells was determined by the addition of MTT essentially as described for the cell growth assay.

Data set [4] concerns BAE cells. Put plainly: Viability (MTT) under tube formation conditions. Format: cell-based, Bovine. The following applies: 7 h, at the concentrations used to inhibit differentiation. As to the method:
as §1

Data set [5] deals with BAE cells. Put plainly: Tube formation with Cytodex beads on Matrigel. Format: cell-based, Bovine. The following applies: 48 h. As to the method:
3×10^4 BAE cells, were cultured with Cytodex beads, and allowed to adhere to them. The beads were added in 200 μL DMEM per well to a 96-well plate that has been previously prepared as follows: different amounts of the compound AD0157 were dispensed in a 96 well plate. Matrigel (50 μL) at 4° C. was used to coat each well of and allowed to polymerise at 37° C. for a minimum of 30 min. After polymerization, the beads carrying the endothelial cells were added to the wells. The plate was incubated at 37° C. in a humidified chamber with 5% CO2. After incubation for 48 h, cultures were observed using an optical microscope. Each concentration was tested in triplicate. Inhibition of tube formation was obtained at 9.3 uM.

The next data set relates to HT1080 MMP-2. The data set can be described thus: Gelatin zymography, HT1080 cells, MMP-2. The data set is classed as cell-based, Human. The following applies: 24 h. As to the method:
BAE or HT1080 cells were grown in 6-well plates at 75% subconfluency in 6-well plates, medium was aspirated, cells were washed twice with phosphate-buffered saline (PBS) and each well received 1.5 ml of DMEM/0.1% BSA containing 200 KIU of Aprotinin/mL. Additionally, some wells received the indicated concentration of AD0157. After 24 h of incubation, conditioned media were collected. To obtain the cell extracts, the cells were washed twice with PBS and harvested by scrapping into 0.5 mL of 0.2% Triton X-100 in 0.1 M Tris/HCl containing 200 KIU aprotinin/mL. Media were centrifuged at 1000×g and 4° C. for 20 min, and used for zymography. Duplicates were used to determine cell number with a Coulter counter.
The gelatinolytic activity of MMP-2 delivered to the conditioned media and cell extracts were detected in gelatinograms. Samples were subjected to non-reducing SDS/PAGE as above but with gelatin (1 mg/mL) added to the 10% resolving gel. After electrophoresis, gels were washed twice with 50 mM Tris/HCl, pH 7.4, supplemented with 2% Triton X-100, and twice with 50 mM Tris/HCl, pH 7.4. […] Then, the gels were stained with Commassie blue R-250 and the bands of gelatinase activity could be detected as non-stained bands in a dark, stained background.
Quantitative analysis of zymograms and gelatinograms was performed with the Scion Image 4.0.3.2 Program.

In the next data set the test system is HT1080 MMP-9. The data set can be described thus: Gelatin zymography, HT1080 cells, MMP-9. The data set is classed as cell-based, Human. The following applies: 24 h.
For data set [6], the system named is chick chorioallantoic membrane. Put plainly: Chick chorioallantoic membrane (CAM) angiogenesis assay. Format: in vivo. As to conditions: 48 h. As to the method:
Fertilised chick eggs were incubated horizontally at 38° C. in a humidified incubator, windowed by day 3 of incubation, and processed by day 8. The tested compound stock solution was added to a 1.2% solution of methylcellulose in water, and 10 μL drops of this solution were allowed to dry on a teflon-coated surface in a laminar flow hood. Then, the methylcellulose discs were implanted on the CAM, the eggs were sealed with adhesive tape and returned to the incubator for 48 h. Negative controls were always made with DMSO mixed with the methylcellulose. After the reincubation, the CAM was examined under a stereomicroscope. The assay was scored as positive when two independent observers reported a significant reduction of vessels in the treated area.

In data set [7] the test system is zebrafish intersegmental vessels. The data set can be described thus: Zebrafish embryo intersegmental vessel assay (TGfli1:EGFPy1). The data set is classed as in vivo. As to conditions: 24 h. As to the method:
Zebrafish embryos were generated by natural pairwise mating and maintained in embryo water at 28.5° C. […] Embryos were manually dechorionated with forceps at 24 h post-fertilization (hpf), they were arrayed in 96-well plate, one embryo per well, and incubated with 100 μl of the indicated concentrations of the tested compounds at 28.5° C. for 24 h. DMSO was used as both carrier of drugs and control. After incubation, fish embryos were anesthetized with tricaine (0.02%), placed on slides and examined under an epifluorescence Nikon microscope equipped with DS-L1 Nikon digital camera. Phenotypic changes were evaluated by two different observers.

What is called IC50 is the midpoint of a concentration-inhibition curve. By % Inhibition is commonly meant the drop in the measured response relative to a control, in per cent. Low readings indicate a weak effect, high ones a strong effect.

As to `C/C=C/C(=O)C1(O)CC2CC(C(=O)O)CC(C)C2C1C(=O)C1=C(/C=C/C)C(=O)C2(Cl)C3(CCCCCC)C(=O)NC(=O)C23C1=O` (stereo not shown) [AD0157], in the data set with BAE cells [1], the IC50 was 10.9 µM. Further, the “Concentration inducing chromatin condensation” value in [2] is “above 5 μM”. For the same compound, in the data set with BAE cells [3], the “Concentration giving complete inhibition of endothelial morphogenesis on Matrigel” value amounted to 5 µM. In the data set on BAE cells [3], the “Concentration giving partial inhibition of endothelial morphogenesis on Matrigel” value came out at 1 µM. Moreover, in the data set on BAE cells [4], the “Viability of endothelial cells” value was “did not affect the viability”. The “Concentration giving inhibition of tube formation” value with BAE cells [5] came out at 9.3 µM. The “MMP-2 levels in HT1080 conditioned media and cellular extracts” value with HT1080 MMP-2 is given as “no effect”. Besides, the “MMP-9 levels in HT1080 conditioned media and cellular extracts” value with HT1080 MMP-9 is recorded as “no effect”. Also, the “% Inhibition” value in [6] (0.1 nmol/CAM) is reported as 20%; in [6] (0.5 nmol/CAM) it was 83%; in data set [6] (1 nmol/CAM), 100%; in [6] (5 nmol/CAM), 100%; in [7] (5 μM) it was 25%; in data set [7] (10 μM), 48%. Also, the “% Inhibition” value in data set [7] (25 μM) amounted to 85%. In addition, the Positive/total in data set [6] (0.1 nmol/CAM) is recorded as 1/5; in [6] (0.5 nmol/CAM) it was 5/6; in data set [6] (1 nmol/CAM), 6/6; in data set [6] (5 nmol/CAM), 6/6; in [7] (5 μM) it was 5/20; in data set [7] (10 μM) it was 12/25. Also, the Positive/total in data set [7] (25 μM) was 17/20.
